Publication PMC10435442, “Developing multitarget coumarin based anti-breast cancer agents: synthesis and molecular modeling study” (Scientific Reports, 2023)
≈ marks a conversion by molar mass, not a printed value. Where “and” joins values, the source holds several entries; their conditions need not be identical. Identical values can stand only once. Like-named read-outs stand apart in the source and are kept apart here.

Assays:
MCF-7 = assay: MTT cytotoxicity assay, MCF-7; details: for IC50: Homo sapiens; for anti-proliferative activity against MCF-7 (in words): SAR discussion
MDA-MB-231 = assay: MTT cytotoxicity assay, MDA-MB-231; details: for IC50: Homo sapiens; for % viability: MDA; for anti-proliferative activity against MDA-MB-231 (in words): SAR discussion
MCF-10A = assay: MTT cytotoxicity assay, nonmalignant MCF-10A; details: for IC50: read-out: MCF-10A IC50, MTT, nonmalignant MCF-10A;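 on all read-outs here: MTT assay with absorbance read at 570 nm after 48 h exposure of cells to serial compound concentrations at 37 °C, testing selectivity against nonmalignant versus cancer cells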
in vitro = details: human
EGFR = EGFR (Homo sapiens, UniProt P00533); assay: In vitro EGFR enzyme inhibition assay (ELISA); details: for EGFR %inh: lab report 01-11-2021
Sequence of EGFR (P00533 25-1210): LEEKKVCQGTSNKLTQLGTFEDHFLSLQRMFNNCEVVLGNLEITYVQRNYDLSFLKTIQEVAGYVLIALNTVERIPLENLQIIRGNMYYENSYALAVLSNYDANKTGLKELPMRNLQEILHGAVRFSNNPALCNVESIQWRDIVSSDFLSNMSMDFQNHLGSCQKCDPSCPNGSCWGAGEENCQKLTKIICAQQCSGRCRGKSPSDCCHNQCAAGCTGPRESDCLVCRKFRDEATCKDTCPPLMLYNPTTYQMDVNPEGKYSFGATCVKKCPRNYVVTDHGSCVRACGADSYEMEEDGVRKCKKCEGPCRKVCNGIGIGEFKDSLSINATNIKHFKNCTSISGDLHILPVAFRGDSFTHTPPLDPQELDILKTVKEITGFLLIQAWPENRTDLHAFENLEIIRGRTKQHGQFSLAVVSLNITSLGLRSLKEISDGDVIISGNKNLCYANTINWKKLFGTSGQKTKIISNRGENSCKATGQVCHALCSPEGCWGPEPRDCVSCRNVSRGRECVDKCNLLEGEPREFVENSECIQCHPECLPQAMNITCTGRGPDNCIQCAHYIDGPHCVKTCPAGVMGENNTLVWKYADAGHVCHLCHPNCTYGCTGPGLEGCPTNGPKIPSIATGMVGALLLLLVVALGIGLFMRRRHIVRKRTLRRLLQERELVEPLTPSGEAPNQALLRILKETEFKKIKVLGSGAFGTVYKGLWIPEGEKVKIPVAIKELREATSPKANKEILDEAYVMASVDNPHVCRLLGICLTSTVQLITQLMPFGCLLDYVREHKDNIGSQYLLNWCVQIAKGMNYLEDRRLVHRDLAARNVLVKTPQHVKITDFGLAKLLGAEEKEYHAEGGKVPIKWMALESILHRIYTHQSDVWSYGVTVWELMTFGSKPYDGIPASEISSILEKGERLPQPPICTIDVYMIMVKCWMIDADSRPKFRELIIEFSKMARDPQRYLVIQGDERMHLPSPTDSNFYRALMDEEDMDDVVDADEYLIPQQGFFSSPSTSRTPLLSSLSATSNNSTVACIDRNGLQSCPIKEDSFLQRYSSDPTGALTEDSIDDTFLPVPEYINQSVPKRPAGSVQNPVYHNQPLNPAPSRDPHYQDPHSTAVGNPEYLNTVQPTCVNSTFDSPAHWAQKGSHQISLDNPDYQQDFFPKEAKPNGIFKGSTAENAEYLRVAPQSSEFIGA

[1] = MCF7, read-out: cytotoxicity_IC50 mcf7
[2] = MDA-MB-231, read-out: MDA-MBA-231 IC50
[3] = MDA-MB-231, read-out: cytotoxicity_IC50 MDA
[4] = MCF-10A cells (nonmalignant breast)
[5] = EGFR IC50, lab report 01-11-2021, 10 compounds

Row | Compound | IC50 at 48 h (in vitro; [4]) [µg/mL] | IC50 (MCF-7; MCF7, read-out: MCF-7 IC50) [µM] | IC50 (MCF-7; [1]) [µg/mL] | % viability (MCF-7; MCF7, 0.4ug) | % viability (MCF-7; MCF7, 1.6ug) | % viability (MCF-7; MCF7, 6.3ug) | % viability (MCF-7; MCF7, 25ug) | % viability (MCF-7; MCF7, 100ug) | IC50 (MDA-MB-231; [2]) [µM] | IC50 (MDA-MB-231; [3]) [µg/mL] | % viability (MDA-MB-231; 0.4ug (log conc. -0.41)) | % viability (MDA-MB-231; 1.6ug (log conc. 0.19)) | % viability (MDA-MB-231; 6.25ug (log conc. 0.8)) [%] | % viability (MDA-MB-231; 25ug (log conc. 1.4)) | % viability (MDA-MB-231; 100ug (log conc. 2)) | IC50 (MCF-10A) [µM] | viability at 48 h, 0.4 ug (in vitro; [4]) [%] | viability at 48 h, 1.6 ug (in vitro; [4]) [%] | viability at 48 h, 6.25 ug (in vitro; [4]) [%] | viability at 48 h, 25 ug (in vitro; [4]) [%] | other results
1 | O=c1cc(CCl)c2ccc(O)cc2o1 [Compound 1, 4-chloromethyl-7-hydroxycoumarin] |  | 115 ± 1.47 | 24.3 ± 1.47 | 77.743% and 77.74% | 67.269% and 67.27% | 59.663% and 59.66% | 49.002% and 49% | 41.1471% and 41.15% | 354 ± 4.06 | 74.5 ± 4.06 | 88.396% and 88.4% | 77.133% and 77.13% | 69.01 | 56.655% and 56.66% | 48.4642% and 48.46% | 442 ± 4.53 |  |  |  |  | anti-proliferative activity against MCF-7 (in words) (MCF-7): devoid of activity; anti-proliferative activity against MDA-MB-231 (in words) (MDA-MB-231): devoid of activity; % viability (MCF-10A; MCF10a, 0.4ug (log conc. -0.41)): 84.01%; % viability (MCF-10A; MCF10a, 1.6ug (log conc. 0.19)): 75.58%; % viability (MCF-10A; MCF10a, 6.25ug (log conc. 0.8)): 67.49%; % viability (MCF-10A; MCF10a, 25ug (log conc. 1.4)): 56.99%; % viability (MCF-10A; MCF10a, 100ug (log conc. 2)): 50.09%; IC50 at 48 h (in vitro): 93 ± 4.53 µg/mL (≈ 442 µM); viability at 48 h, 0.4 ug (in vitro): 84%; viability at 48 h, 1.6 ug (in vitro): 75.6%; viability at 48 h, 6.25 ug (in vitro): 67.5%; viability at 48 h, 25 ug (in vitro): 57%; viability at 48 h, 100 ug (in vitro): 50.1%
2 | O=C(COc1ccc2c(CCl)cc(=O)oc2c1)c1ccccc1 [Compound 5, 4-(Chloromethyl)-7-(2-oxo-2-phenylethoxy)-2H-chromen-2-one] | 27.6 ± 1.35 (≈ 84 µM) | 39.5 ± 0.79 | 13 ± 0.79 | 67.523% | 64.281% | 52.844% | 47.217% | 38.104% | 5.8 ± 0.1 | 1.91 ± 0.1 | 61.18% | 50.473% | 42.019 | 33.628% | 22.3344% | 83.9 ± 1.35 | 74.4 | 66.7 | 57.6 | 49.9 | viability at 48 h, 100 ug (in vitro; [4]): 43.5%; IC50 (EGFR; EGFR IC50, lab report 01-09-2021, 04 compounds, reference Erlotinib): 0.316 µM; IC50 (EGFR; EGFR inhibition IC50): 0.316 ± 0.0066 µM; inhibition at 10 pg/mL (EGFR; read-out: EGFR %inh): 29%; inhibition at 0.0001 µg/mL (EGFR; read-out: EGFR %inh): 50%; inhibition at 0.001 µg/mL (EGFR; read-out: EGFR %inh): 70%; inhibition at 0.01 µg/mL (EGFR; read-out: EGFR %inh): 90%; Percentage above Reference IC50 (potency relative to erlotinib) (EGFR; reference Erlotinib): 54.886%
3 | O=C(COc1ccc2c(CCl)cc(=O)oc2c1)c1ccc(Cl)cc1 [Compound 6, 4-(Chloromethyl)-7-(2-(4-chlorophenyl)-2-oxoethoxy)-2H-chromen-2-one] | 56.6 ± 2.76 (≈ 156 µM) | 217 ± 4.77 | 78.7 ± 4.77 | 87.56% | 78.06% | 71.906% | 59.463% | 45.972% | 56.6 ± 1.12 | 20.5 ± 1.12 | 73.67% | 63.08% | 56.509 | 49.4083% | 41.124% | 156 ± 2.76 | 78.1 | 70.4 | 62.2 | 54.8 | anti-proliferative activity against MCF-7 (in words) (MCF-7): lower activity level; anti-proliferative activity against MDA-MB-231 (in words) (MDA-MB-231): lower activity level; viability at 48 h, 100 ug (in vitro; [4]): 46.8%; IC50 (EGFR; [5]): 0.154 µM; IC50 (EGFR; EGFR inhibition IC50): 0.154 ± 0.008 µM; EGFR %inh (EGFR; conc 0.01 (unit not given)): 34%; EGFR %inh (EGFR; conc 0.1 (unit not given)): 57%; EGFR %inh (EGFR; conc 1 (unit not given)): 74%; EGFR %inh (EGFR; conc 10 (unit not given)): 91%; Percentage above Reference IC50 (potency relative to erlotinib) (EGFR; reference Erlotinib): 54.545%
4 | COc1ccccc1C(=O)OCc1cc(=O)oc2cc(OC(C)=O)ccc12 [Compound 15, (7-Acetoxy-2-oxo-2H-chromen-4-yl)methyl 2-methoxybenzoate] | 115 ± 5.62 (≈ 312 µM) | 17.1 ± 0.38 | 6.3 ± 0.38 | 67.97% | 58.26% | 50.063% | 42.623% | 31.337% | 74.9 ± 1.52 | 27.9 ± 1.52 | 76.72% | 65.9% | 56.927 | 46.8873% | 37.745% | 312 ± 5.62 | 86 | 78.2 | 68.2 | 60.1 | anti-proliferative activity against MCF-7 (in words) (MCF-7): moderate anti-proliferative activity; viability at 48 h, 100 ug (in vitro; [4]): 50.8%
5 | COc1cccc2c1C(=O)c1c(O)c3c(c(O)c1C2=O)C[C@@](O)(C(=O)CO)C[C@@H]3O[C@H]1C[C@H](N)[C@H](O)[C@H](C)O1 [Doxorubicin, reference compound] | 12.4 ± 0.6 (≈ 22.8 µM) | 5.6 ± 0.18 | 3.04 ± 0.18 | 62.95% | 52.16% | 46.435% | 38.2693% | 28.946% | 7.3 ± 0.22 | 3.98 ± 0.22 |  |  |  | 40.9788% |  | 22.8 ± 0.6 | 74 | 63.5 | 55.4 | 44.6 | % viability (MCF-7; MCF7, 0.4ug (log conc. -0.4089)): 62.9494%; % viability (MCF-7; MCF7, 1.6ug (log conc. 0.1931)): 52.1633%; % viability (MCF-7; MCF7, 6.25ug (log conc. 0.7959)): 46.4351%; % viability (MCF-7; MCF7, 100ug (log conc. 2)): 28.9458%; % viability (MDA-MB-231; 0.4ug (log conc. -0.41), listed as Dox): 63.56% and 63.5613%; % viability (MDA-MB-231; 1.6ug (log conc. 0.19), listed as Dox): 55.84% and 55.8373%; % viability (MDA-MB-231; 6.25ug (log conc. 0.8), listed as Dox): 46.58% and 46.5802%; % viability (MDA-MB-231; 100ug (log conc. 2), listed as Dox): 29.599% and 29.5991%; % viability (MCF-10A; MCF10a cells, 0.4ug, listed as Dox): 73.9934%; % viability (MCF-10A; MCF10a cells, 1.6ug, listed as Dox): 63.4983%; % viability (MCF-10A; MCF10a cells, 6.25ug (6.3ug), listed as Dox): 55.4455%; % viability (MCF-10A; MCF10a cells, 100ug, listed as Dox): 35.9076%; IC50 (MCF-10A; listed as DOX): 12.4 µM; viability at 48 h, 100 ug (in vitro; [4]): 35.9%

Further lines, with some results ahead:

Row | IC50 at 48 h (in vitro; [4]) [µg/mL] | Compound | IC50 (MCF-7; MCF7, read-out: MCF-7 IC50) [µM] | IC50 (MCF-7; [1]) [µg/mL] | % viability (MCF-7; MCF7, 0.4ug) | % viability (MCF-7; MCF7, 1.6ug) | % viability (MCF-7; MCF7, 6.3ug) | % viability (MCF-7; MCF7, 25ug) | % viability (MCF-7; MCF7, 100ug) | IC50 (MDA-MB-231; [2]) [µM] | IC50 (MDA-MB-231; [3]) [µg/mL] | % viability (MDA-MB-231; 0.4ug (log conc. -0.41)) | % viability (MDA-MB-231; 1.6ug (log conc. 0.19)) | % viability (MDA-MB-231; 6.25ug (log conc. 0.8)) [%] | % viability (MDA-MB-231; 25ug (log conc. 1.4)) | % viability (MDA-MB-231; 100ug (log conc. 2)) | IC50 (MCF-10A) [µM] | viability at 48 h, 0.4 ug (in vitro; [4]) [%] | viability at 48 h, 1.6 ug (in vitro; [4]) [%] | viability at 48 h, 6.25 ug (in vitro; [4]) [%] | viability at 48 h, 25 ug (in vitro; [4]) [%] | other results
6 | 122 ± 5.93 (≈ 369 µM) | O=C(OCc1cc(=O)oc2cc(O)ccc12)c1ccc(Cl)cc1 [Compound 3, (7-Hydroxy-2-oxo-2H-chromen-4-yl)methyl 4-chlorobenzoate] | 36.6 ± 0.74 | 12.1 ± 0.74 | 72.04% | 65.12% | 53.704% | 45.5556% | 35.679% | 67.5 ± 1.22 | 22.3 ± 1.22 | 76.24% | 65.98% | 58.685 | 49.2762% | 40.41% | 369 ± 5.93 | 95.8 | 83.9 | 72.9 | 61.2 | viability at 48 h, 100 ug (in vitro; [4]): 52.7%; IC50 (EGFR; [5]): 0.974 µM; IC50 (EGFR; EGFR inhibition IC50): 0.974 ± 0.06 µM; EGFR %inh (EGFR; conc 0.01 (unit not given)): 17%; EGFR %inh (EGFR; conc 0.1 (unit not given)): 36%; EGFR %inh (EGFR; conc 1 (unit not given)): 60%; EGFR %inh (EGFR; conc 10 (unit not given)): 85%; Percentage above Reference IC50 (potency relative to erlotinib) (EGFR; reference Erlotinib): 8.624%
7 | 41.6 ± 2.03 (≈ 127 µM) | COc1ccccc1C(=O)OCc1cc(=O)oc2cc(O)ccc12 [Compound 4, (7-Hydroxy-2-oxo-2H-chromen-4-yl)methyl 2-methoxybenzoate] | 17.2 ± 0.34 | 5.6 ± 0.34 | 68.369% | 58.612% | 49.509% | 38.9% | 30.9103% | 6.4 ± 0.11 | 2.08 ± 0.11 | 60.769% | 51.538% | 43.254 | 34.142% | 25.2071% | 128 ± 2.03 | 76.8 | 69.5 | 61.1 | 53.6 | viability at 48 h, 100 ug (in vitro; [4]): 44.3%; IC50 (EGFR; [5]): 0.438 µM; IC50 (EGFR; EGFR inhibition IC50): 0.438 ± 0.027 µM; EGFR %inh (EGFR; conc 0.01 (unit not given)): 25%; EGFR %inh (EGFR; conc 0.1 (unit not given)): 46%; EGFR %inh (EGFR; conc 1 (unit not given)): 70%; EGFR %inh (EGFR; conc 10 (unit not given)): 87%; Percentage above Reference IC50 (potency relative to erlotinib) (EGFR; reference Erlotinib): 19.178%
